Laboratory results published in publication PMC7118906, “Esculetin Inhibits Cancer Cell Glycolysis by Binding Tumor PGK2, GPD2, and GPI” (Frontiers in Pharmacology, 2020).

What was measured:
Type in all cases: binding
[1] = biological target: T1, phosphoglycerate kinase 2 (PGK2) (Homo sapiens, UniProt P07205); assay: microscale thermophoresis with labeled purchased protein (Abcam ab123166)
T1 sequence (P07205 2-417): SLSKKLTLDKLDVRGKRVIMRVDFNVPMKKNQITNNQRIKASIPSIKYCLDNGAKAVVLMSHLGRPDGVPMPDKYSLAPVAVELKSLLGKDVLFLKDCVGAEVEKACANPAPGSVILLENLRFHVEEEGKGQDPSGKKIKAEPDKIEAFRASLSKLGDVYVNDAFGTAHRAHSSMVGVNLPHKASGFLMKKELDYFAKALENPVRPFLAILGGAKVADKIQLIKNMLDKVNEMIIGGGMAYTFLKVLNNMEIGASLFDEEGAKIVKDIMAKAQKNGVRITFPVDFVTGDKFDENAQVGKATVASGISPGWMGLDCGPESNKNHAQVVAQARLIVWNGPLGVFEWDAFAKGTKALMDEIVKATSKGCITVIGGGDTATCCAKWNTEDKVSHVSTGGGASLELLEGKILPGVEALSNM

[2] = biological target: T2, glycerol-3-phosphate dehydrogenase (GPD2) (Homo sapiens, UniProt P43304); assay: microscale thermophoresis with labeled purchased protein (Abcam ab153790)
T2 sequence (P43304 43-727): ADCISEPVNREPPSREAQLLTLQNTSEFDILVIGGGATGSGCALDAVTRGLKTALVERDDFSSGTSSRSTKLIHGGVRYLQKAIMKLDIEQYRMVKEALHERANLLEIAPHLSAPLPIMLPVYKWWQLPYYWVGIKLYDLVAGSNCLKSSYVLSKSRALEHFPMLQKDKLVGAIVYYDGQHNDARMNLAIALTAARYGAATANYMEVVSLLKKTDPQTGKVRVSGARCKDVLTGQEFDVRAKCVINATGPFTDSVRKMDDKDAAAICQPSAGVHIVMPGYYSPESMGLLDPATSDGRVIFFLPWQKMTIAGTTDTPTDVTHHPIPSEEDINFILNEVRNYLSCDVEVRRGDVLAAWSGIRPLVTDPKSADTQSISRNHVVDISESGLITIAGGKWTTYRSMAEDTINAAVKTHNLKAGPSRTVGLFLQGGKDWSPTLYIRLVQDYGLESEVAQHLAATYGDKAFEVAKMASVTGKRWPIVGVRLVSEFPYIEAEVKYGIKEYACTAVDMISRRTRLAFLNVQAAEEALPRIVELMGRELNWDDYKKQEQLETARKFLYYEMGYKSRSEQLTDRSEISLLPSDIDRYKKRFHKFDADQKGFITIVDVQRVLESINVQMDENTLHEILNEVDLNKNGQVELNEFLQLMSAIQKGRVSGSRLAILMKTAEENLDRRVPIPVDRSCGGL

[3] = biological target: glucose-6-phosphate isomerase (GPI) (Homo sapiens, UniProt P06744); assay: microscale thermophoresis with labeled purchased protein (Abcam ab208311)

O=c1ccc2cc(O)c(O)cc2o1 [Esculetin]
Kd [1]: 161 ± 63.3 nM | Kd [2]: 666 ± 196 nM | Kd [3]: 127 ± 22.4 nM
